These results are taken from patent US8119691B2, “Method for treating airway hyper-responsiveness with lipoxin analogs” (National Institutes of Health (NIH), priority 2001, dated 2012).

Test [1] deals with mouse ear skin. Description: Eosinophil tissue infiltration: EPO activity in mouse ear skin after topical LTB4 plus PGE2. It is filed as in vivo. Particulars: topical LXa 10 μg per ear, LTB4 1 μg + PGE2 1 μg, 13-16 h. The method, then: FIG. 6. Expression of human ALX in transgenic mice prevents eosinophil trafficking. LTB4 (1 μg) and PGE2 (1 μg) were topically applied (13-16 h) to mouse ear skin and EPO activity in tissue biopsies was determined by bromination of HPA (see Methods). Values represent the mean±SEM for pmoles Br-HPA per μg total protein for Non-tg littermates (n=6) or BLT-tg (n=2) mice in the absence or presence of topical LXa (10 μg per ear) and 2 separate ALX-tg lines (n=4). *P<0.05 by Student's T-test compared to littermate controls.
Eosinophil tissue infiltration. […] EPO activity was monitored by mono-bromination of HPA (Br-HPA). […] Trimethyl silylated HPA, Br-HPA and d4-tyrosine were detected by GC-MS (GC model #6890, MS model #5973, Hewlett Packard, San Fernando, Calif.). […] EPO activity was quantitated by percent conversion of HPA to Br-HPA, taking into account the recovery of the internal standard (>80%) and normalized for the samples' protein content (determined by BioRad protein reagent) (BioRad, Hercules, Calif.).

Test [2] concerns OVA sensitized and challenged mice. Description: Leukocytes in bronchoalveolar lavage fluid (Wright-Giemsa stain) of OVA sensitized and challenged mice. The conditions noted are these: LXa i.v. Type of test: in vivo, mouse (BALB/c). As to the method: FIG. 3. […] Bronchoalveolar lavage fluids were obtained from OVA sensitized and challenged mice. Leukocytes in bronchoalveolar lavage fluid were enumerated and identified after Wright-Giemsa stain (a). Mediator profile of (b) specific cytokines (IL-5, IL-12, IL-13, eotaxin and TNFα), and lipid mediators, including PGE2 (c), LTB4 and cysLT's (d) were determined by ELISA's in materials from control animals and those receiving LXa (10 μg, i.v.). Results are expressed as mean±SEM (n≧6, d≧2). *P<0.05 by Student's t-test compared to control animals.
Sensitization and challenge protocols. Five to seven week old male BALB/c (Charles River Laboratories, Wilmington, Mass.) or female hCD11b-hALX FvB transgenic mice were housed in isolation cages under viral antibody-free conditions. […] On day 18, 24 h after the last aerosol challenge, airway responsiveness to intravenous methacholine (33-1000 μg/kg) was measured, bilateral bronchoalveolar lavage (BAL) (2 aliquots of 1 ml PBS plus 0.6 mM EDTA) was performed and tissues (whole blood, lungs, mediastinal lymph nodes and spleen) were harvested for histological analysis. Lung resistance (RL) was measured using a sealed constant mass plethysmograph. […] For mice studied using a whole body plethysmograph to assess airway responsiveness (Buxco), each mouse was placed into a chamber and box pressure/time waveform was analyzed to yield the indicator of airflow obstruction, enhanced pause (Penh). […] Readings were initiated at 3 min and continued for 12 min. Peak and one min average Penh values were determined. Serum total IgE levels were determined by ELISA (Crystal Chem, Chicago, Ill.). […]
Allergen-initiated respiratory inflammation. Measurement of inflammatory mediators was determined in cell-free BAL fluid (2000 g, 10 min) by sensitive and specific ELISA's, in tandem, for interleukin-5 (IL-5), IL-13, eotaxin, tumor necrosis factor (TNFα) (R&D Systems, Minneapolis, Minn.), LTB4, cysteinyl LT, PGE2 (Cayman Chemical Co., Ann Arbor, Mich.), and LXA4 (Neogen, Lexington, Ky.). […]

Take `COC(=O)CCC[C@H](O)[C@H](O)/C=C/C=C/C=C\C=C\[C@H](O)COc1ccc(F)cc1` [LXa, 15-epi,16-para-fluoro-phenoxy-LXA4-methyl ester]: the “eicosanoid-stimulated skin EPO activity” value in test [1] (Non-tg mice) is reported as “inhibited eicosanoid-stimulated skin EPO activity”. In test [1] (mice with increased expression of LTB4 receptors (BLT-tg)), the “eicosanoid-stimulated skin EPO activity” value is “inhibited eicosanoid-stimulated skin EPO activity”. In test [2], the BAL eosinophils entry was “sharply reduced in a dose-dependent fashion”, the BAL lymphocytes entry is recorded as “sharply reduced in a dose-dependent fashion” and the BAL total leukocytes result is “sharply reduced in a dose-dependent fashion”.
